One assay relates to PPAR. Put plainly: Endogenous PPAR transactivation, luciferase reporter in primary porcine RPE cells. The class given is cell-based. On the procedure:
(§1) Pig eyes were obtained from a local slaughterhouse and transported to the laboratory in ice-cold Ringer solution. After removal of the anterior segment of the eye, the vitreous and neural retina was separated from the RPE and removed. The eyecup was washed twice with phosphate buffer saline (PBS), filled with trypsin (0.25% in PBS) and incubated at 37°C for 1.5 h. RPE cells were harvested by gently pipetting, centrifuged to remove trypsin and re-suspended in Dulbecco’s Modified Eagle Medium (DMEM) supplemented with 20% (v/v) foetal-calf serum (DMEM20%FCS) and 0.1% gentamycin. Cells were seeded into 60 mm diameter Petri dishes, cultured in an atmosphere of 5% CO2/95% air at 37°C, and supplied with fresh medium after 24 hours and 4 days in vitro. For experiments aimed at measuring mRNA or protein expression in RPE, cells were trypsinized after one week in culture and transferred to 24-well or 6-well plates at a density of 1.5 × 10^5 cells/cm^2 in DMEM2%FCS. Norbixin or agonists were added to the medium 24 h after seeding, and antagonists were added to the medium 24 h later. A2E treatment was performed during 19 h before cellular sample preparation. All the drugs used in these experiments were prepared as stock solutions in DMSO.
(§2) After one week in culture, cells were trypsinized and transferred to a 96-well plate at a density of 6 × 10^4 cells/cm^2 in DMEM2%FCS. The next day, cells were transfected using the Cignal Reporter Assay Kits for PPAR, RXR, AP-1 and NF-κB, according to the manufacturer’s specifications. To measure the specific activation of PPAR isoforms, cells were also co-transfected with PPAR-α, PPAR-β/δ or PPAR-γ expression vectors. Transfection was performed with Lipofectamine and Plus Reagent in serum-free medium. 3 h after the transfection, the medium was replaced and treatments with the molecules to assay were performed. Luciferase activity was measured the next day using the Dual-Luciferase Reporter Assay System. The measurements were performed with a luminometer (Infinite M1000 from Tecan, Mannedorf, Switzerland). Firefly: Renilla activity ratios were calculated for each condition and ratios from transcription factor-responsive reporter transfections were divided by ratios from negative control transfections to obtain relative luciferase unit, as described by the manufacturer. At least 3 independent transfections were performed in triplicate for each condition.
A general note: A reporter such as luciferase makes a cellular process visible.

The test system of the next assay is AP-1. Put plainly: AP-1 transactivation, luciferase reporter in porcine RPE cells. Format: cell-based. Here is the method:
as §1
as §2, with “Transfection was performed with Lipofectamine and Plus Reagent in serum-free medium. 3 h after the transfection, the medium was replaced and treatments with the molecules to assay were performed.” left out, “The measurements were performed with a luminometer (Infinite M1000 from Tecan, Mannedorf, Switzerland).” left out, “At least 3 independent transfections were performed in triplicate for each condition.” left out

The next assay has as its system IL-8. In words: IL-8 mRNA expression by quantitative RT-PCR in porcine RPE cells. The class given is cell-based. On the procedure: as §1
(§3) Total RNA was extracted using the NucleoSpin® RNA kit according to manufacturer’s instructions. RT of 500 ng of RNA was performed using the SuperScript III Reverse Transcriptase following the manufacturer’s instructions. Five ng of cDNA were amplified using the SYBR GREEN real-time PCR method. PCR primers for target genes and housekeeping gene GAPDH were designed using Primer3Plus Bioinformatic software (Table 2). The RT-PCR using the StepOne Plus (Life Technologies, Carlsbad, CA, USA) consisted of incubation at 50°C for 5 min followed by 40 cycles of 95°C for 15 s and of 60°C for 1 min. The reaction was completed by a melt curve stage at 95°C for 15 s, 60°C for 1 min, 95°C for 15 s and a final step at 60°C for 15 s. The relative mRNA expression was calculated using the comparative threshold method (Ct-method) with GAPDH for normalization. All experimental conditions were processed in triplicate and each experiment was done at least 3 times.

The next assay relates to AKT. Put plainly: AKT phosphorylation by western blot in primary porcine RPE cells. The class given is cell-based. On the procedure:
as §1, with “Norbixin or agonists were added to the medium 24 h after seeding, and antagonists were added to the medium 24 h later. A2E treatment was performed during 19 h before cellular sample preparation. All the drugs used in these experiments were prepared as stock solutions in DMSO.” left out
RPE samples were lysed in 20 mM Tris-HCl, 150 mM NaCl, 1 mM EDTA, 1% NP-40, pH 7.5 buffer containing a cocktail of protease and phosphatase inhibitors. […] The signal was developed using enhanced chemiluminescence reagents (ECL) prime detection kit, quantified by densitometry using Bio1D (Vilber Lourmat, Germany) and normalized by GAPDH levels. […]
(A western blot detects proteins with antibodies after separation by electrophoresis.)

A further assay deals with CCL2. In words: CCL2 mRNA expression by quantitative RT-PCR in porcine RPE cells. Format: cell-based. On the procedure:
as §1, with “All the drugs used in these experiments were prepared as stock solutions in DMSO.” left out
(§4) Total RNA was extracted using the NucleoSpin® RNA kit according to manufacturer’s instructions. […] The relative mRNA expression was calculated using the comparative threshold method (Ct-method) with GAPDH for normalization. […]

The test system of another assay is IL-6. Put plainly: IL-6 mRNA expression by quantitative RT-PCR in porcine RPE cells. Format: cell-based. The conditions noted are these: T007907 10 μM. On the procedure:
as §1, §3

Another assay deals with MMP9. Put plainly: MMP9 mRNA expression by quantitative RT-PCR in porcine RPE cells. The class given is cell-based. On the procedure:
as §1, with “All the drugs used in these experiments were prepared as stock solutions in DMSO.” left out
as §4

For the next assay, the system named is PPAR-β/δ. In words: Transactivation of over-expressed PPAR-β/δ, luciferase reporter in porcine RPE cells. The class given is cell-based, pig. The following applies: for transactivation of over-expressed PPAR-β/δ by the compound alone: vs DMSO control, A2E 20 μM, NBX increasing concentrations. Here is the method: Then the effects of A2E on the endogenous PPAR transactivation in porcine RPE cells were investigated by means of a luciferase assay. […] The level of transactivation of PPAR-α, -β/δ, or -γ isoforms by A2E was determined by co-transfection of porcine RPE cells with a plasmid expressing each of the full-length PPAR isoforms and a plasmid expressing luciferase under the control of the PPAR response element. […] All usual chemicals, primers, and HX531 were from Sigma (St. Louis, MO, USA). Reagents for cell culture, transfection and quantitative RT-PCR were from Thermo Fisher Scientific (Waltham, MA, USA). RNA extraction NucleoSpin® RNA kit was from Macherey Nagel (Düren, Germany). ECL prime and PVDF membrane were from Amersham GE Healthcare (Buckinghamshire, UK). Primary antibodies against the following proteins were used: GAPDH (Santa Cruz Biotechnology, Inc, Dallas, TX, USA); pAKT, AKT, pERK and ERK (Cell Signaling, Danvers, MA, USA). Secondary antibodies were from Jackson ImmunoResearch (Cambridgeshire, UK). […] Cignal Pathway Reporter Assay Kits were from QIAGEN (Frederick, MD, USA). The Dual-Luciferase Reporter Assay System was purchased from Promega (Madison, WI, USA). pcDNA 3.1 (+)-PPARα and pcDNA 3.1 (+)-PPARβ/δ (pig sequence) were purchased from Genscript (Piscataway, NJ, USA). pCMV6-XL4-PPARγ (human sequence) was purchased from Origene (Rockville, MD, USA).
as §2

On to `CC(/C=C/C=C(C)/C=C/C(=O)O)=C\C=C\C=C(C)\C=C\C=C(C)\C=C\C(=O)O` (stereo in doubt) [norbixin, 9’-cis-norbixin], for which, in the assay with PPAR (A2E 20 μM, NBX 20 μM, HX531 5 μM (HX531 effect not significant)), the “inhibition of endogenous PPAR transactivation induced by A2E” value was found to be 52%. In addition, the “effect of the compound alone on endogenous PPAR transactivation” value in the assay with PPAR (NBX 20 μM, no A2E) is recorded as “did not inhibit”. For the same molecule, the “inhibition of AP-1 transactivation induced by A2E” value with AP-1 (A2E 20 μM, NBX 20 μM, HX531 5 μM) turned out to be 82%. In addition, the “inhibition of IL-8 mRNA expression induced by A2E” value with IL-8 (NBX 20 μM + A2E 30 μM) is reported as “approximately 23 fold”. Moreover, the “effect on the increase of AKT phosphorylation induced by A2E” value in the assay on AKT (NBX 20 μM + A2E 30 μM) is listed as “abrogated completely”. Moreover, the “effect on CCL2 mRNA expression induced by A2E” value with CCL2 (NBX 20 μM + A2E 30 μM) is recorded as “further increased”. Further, in the assay with IL-6 (NBX 20 μM with A2E 30 μM, MK886 1 μM, GSK3787 1 μM, HX531 5 μM with A2E 20 μM), the “reduction of IL-6 mRNA expression induced by A2E” value is 145%. For the same molecule, the “effect on MMP9 mRNA expression in the absence or presence of A2E” value in the assay on MMP9 (NBX 20 μM, A2E 30 μM) is reported as “slightly, but significantly, increased”. Further, the “effect on over-expressed PPAR-β/δ transactivation induced by A2E” value in the assay with PPAR-β/δ (A2E 20 μM + NBX 20 μM) is listed as “fully abolished”. For the same molecule, the “inhibition of PPAR-β/δ transactivation induced by GW0742” value with PPAR-β/δ (GW0742 at 1 nM, NBX 20 μM) is given as “did not inhibit significantly”. The “transactivation of over-expressed PPAR-β/δ by the compound alone” value in the assay on PPAR-β/δ is recorded as “did not demonstrate any transactivation activity”.
On to `CC(C=CC1=C(C)CCCC1(C)C)=CC=CC(C)=Cc1cc(C=CC=C(C)C=CC2=C(C)CCCC2(C)C)cc[n+]1CCO` [A2E, N-retinylidene-N-retinylethanolamine], for which the “minimal required concentration to transactivate all PPARs (endogenous)” value with PPAR (dose-response, porcine RPE cells) is 20 µM. Also, the “effect of the compound alone on AP-1 transactivation” value in the assay with AP-1 (A2E 20 μM vs DMSO control) was “induced transactivation of AP-1”. Moreover, the “effect of the compound alone on IL-8 mRNA expression” value in the assay with IL-8 (vs DMSO control) is on record as “induces the expression”. For the same molecule, the “effect of the compound alone on AKT phosphorylation” value in the assay on AKT (A2E 30 μM vs DMSO control) is “induced the phosphorylation”. The “effect of the compound alone on CCL2 mRNA expression” value with CCL2 (A2E 30 μM vs DMSO control) is given as “up-regulated”. In addition, the “effect of the compound alone on IL-6 mRNA expression” value in the assay with IL-6 (vs DMSO control) is given as “induces the expression”. Moreover, the “effect of the compound alone on MMP9 mRNA expression” value in the assay with MMP9 (A2E 30 μM vs DMSO control) is recorded as “reduced the expression”. In the assay with PPAR-β/δ, the “transactivation of over-expressed PPAR-β/δ by the compound alone” value is recorded as “induced the transactivation”.

(Values after PMC8507260, “A2E-induced inflammation and angiogenesis in RPE cells in vitro are modulated by PPAR-α, -β/δ, -γ, and RXR antagonists and by norbixin” (Aging (Albany NY), 2021).)
